Paper PMC6713233 (Toxicology in vitro : an international journal published in …, 2019)
Several values for one entry are separate records, joined by “and”; a condition that tells them apart may be missing. Equal values may be shown once. Read-outs that look alike come from different tables or passages of the source.

Experiments:
recombinant human AChE [1] = biological target: T1, recombinant human AChE (Homo sapiens, UniProt P22303); assay: biochemical; type: biochemical; settings: for Emax: read-out: efficacy (%), Fluorescence
recombinant human AChE [2] = biological target: T1, recombinant human AChE; assay: biochemical; type: biochemical; settings: for Emax: read-out: efficacy (%), Colorimetric
recombinant human AChE [3] = biological target: T1, recombinant human AChE; assay: biochemical; type: biochemical; settings: for Emax: read-out: efficacy (%), Colorimetric, +Rat MS
recombinant human AChE [4] = biological target: T1, recombinant human AChE; assay: biochemical
recombinant human AChE [5] = biological target: T1, recombinant human AChE; type: biochemical
recombinant human AChE [6] = biological target: T1, recombinant human AChE; assay: biochemical; type: biochemical; settings: for Emax: read-out: efficacy (%), Fluorescence, +Rat MS
cholinesterase = settings: following exposure; rats, mice, birds, fish, and farm animals; ref International Programme on Chemical Safety, 1989; cited from earlier work
AChE = settings: following exposure; ref International Programme on Chemical Safety, 1989; cited from earlier work
[7] = IC50 (μM), Colorimetric, +Human MS

T1 sequence (P22303 32-614): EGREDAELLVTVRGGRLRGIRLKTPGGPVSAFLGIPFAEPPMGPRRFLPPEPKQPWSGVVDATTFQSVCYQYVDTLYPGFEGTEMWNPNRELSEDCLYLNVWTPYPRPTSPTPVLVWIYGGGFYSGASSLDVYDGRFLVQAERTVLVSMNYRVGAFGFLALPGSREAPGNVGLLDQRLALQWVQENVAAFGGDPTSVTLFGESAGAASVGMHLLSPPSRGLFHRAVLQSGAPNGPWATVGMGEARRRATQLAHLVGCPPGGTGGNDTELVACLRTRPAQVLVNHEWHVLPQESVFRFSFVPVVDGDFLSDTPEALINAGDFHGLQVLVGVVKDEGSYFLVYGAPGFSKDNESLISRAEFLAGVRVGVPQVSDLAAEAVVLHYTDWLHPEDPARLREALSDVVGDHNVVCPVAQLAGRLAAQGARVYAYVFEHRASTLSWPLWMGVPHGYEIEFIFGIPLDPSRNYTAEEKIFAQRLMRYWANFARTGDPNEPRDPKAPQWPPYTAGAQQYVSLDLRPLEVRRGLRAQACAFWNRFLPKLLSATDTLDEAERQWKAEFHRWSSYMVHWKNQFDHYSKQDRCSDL

With `COP(=O)(NC(C)=O)SC` (stereo not shown) [Acephat] the “IC50 (μM), Fluorescence” value (recombinant human AChE [1]) was “Inactive” and the “IC50 (μM), Colorimetric” value (recombinant human AChE [2]) was “Inactive”.

With `CCOP(=S)(OCC)OC(Cl)C(Cl)(Cl)Cl` (stereo not shown) [Chlorethoxyfos] the Emax (recombinant human AChE [3]) was 105%, the “efficacy (%), Colorimetric, +Human MS” value (recombinant human AChE [4]) was 10.88±0.00 (−102.91±1.64) % and the IC50 (recombinant human AChE [4]; [7]) was 10.9 µM. The Emax (recombinant human AChE [1]) was 99.2%, the “efficacy (%), Fluorescence, +Human MS” value (recombinant human AChE [5]) was 31.57±8.80 (−99.07±7.79) % and the Emax (recombinant human AChE [6]) was 100%. The Emax (recombinant human AChE [2]) was 46.3%.

In the case of `CCOP(=S)(OCC)Oc1nc(Cl)c(Cl)cc1Cl` [Chlorpyrifos], the Emax (recombinant human AChE [3]) is reported as 98.8%, the “efficacy (%), Colorimetric, +Human MS” value (recombinant human AChE [4]) is reported as 1.71±0.47 (−93.65±1.00) % and the “inhibition of AChE activity” value (recombinant human AChE [4]) is reported as “did not inhibit AChE activity”. For the same molecule, the IC50 (recombinant human AChE [4]; [7]) was 1.71 µM, the IC50 (recombinant human AChE [4]; IC50, inhibition of AChE) was 1.31 µM and 0.78 µM and 0.8 µM and the Emax (recombinant human AChE [1]) was 100%. For the same molecule, the “efficacy (%), Fluorescence, +Human MS” value (recombinant human AChE [5]) was 1.22±0.00 (−102.89±2.97) %, the Emax (recombinant human AChE [6]) was 89.8% and the “IC50 (μM), Colorimetric” value (recombinant human AChE [2]) was “Inactive”.

For `CCOP(=S)(OCC)Oc1ccc2c(C)c(Cl)c(=O)oc2c1` [Coumaphos], the Emax (recombinant human AChE [3]) was 96.5%, the “efficacy (%), Colorimetric, +Human MS” value (recombinant human AChE [4]) was 8.06±1.94 (−98.15±5.15) % and the IC50 (recombinant human AChE [4]; [7]) was 8.06 µM. The Emax (recombinant human AChE [1]) was 83.3%, the “efficacy (%), Fluorescence, +Human MS” value (recombinant human AChE [5]) was 12.95±1.05 (−67.18±4.87) % and the Emax (recombinant human AChE [6]) was 95%. For the same molecule, the “IC50 (μM), Colorimetric” value (recombinant human AChE [2]) was “Inactive”.

For `CCOP(=S)(OCC)Oc1cc(C)nc(C(C)C)n1` [Diazinon], the Emax (recombinant human AChE [3]) was 73.1%, the “IC50 (μM), Colorimetric, +Human MS” value (recombinant human AChE [4]) was “Inactive” and the Emax (recombinant human AChE [1]) was 96.3%. For the same molecule, the “efficacy (%), Fluorescence, +Human MS” value (recombinant human AChE [5]) was 113.22±7.66 (−71.22±6.26) %, the “IC50 (μM), Fluorescence, +Rat MS” value (recombinant human AChE [6]) was “Inactive” and the Emax (recombinant human AChE [2]) was 102%.

Molecule `CCOP(=O)(OCC)Oc1cc(C)nc(C(C)C)n1` [Diazoxon] has an Emax (recombinant human AChE [1]) of 77.7%, an IC50 (recombinant human AChE [2]) of 1.33 µM and an Emax (recombinant human AChE [2]) of 95.2%.

Molecule `COP(=O)(OC)OC=C(Cl)Cl` [Dichlorvos] has an Emax (recombinant human AChE [1]) of 76.8% and an Emax (recombinant human AChE [2]) of 34.9%.

With `COP(=O)(OC)O/C(C)=C/C(=O)N(C)C` [Dicrotophos] the Emax (recombinant human AChE [1]) was 82.7% and the Emax (recombinant human AChE [2]) was 32.5%.

For `CNC(=O)CSP(=S)(OC)OC` [Dimethoate], the “IC50 (μM), Colorimetric, +Rat MS” value (recombinant human AChE [3]) is listed as “Inactive”, the “cholinesterase activity in animals” value (cholinesterase) is listed as “cholinesterase activity was inhibited” and the “AChE inhibition in human volunteers” value (AChE) is listed as “no AChE inhibition was observed”. The “IC50 (μM), Colorimetric, +Human MS” value (recombinant human AChE [4]) was “Inactive”, the “IC50 (μM), Fluorescence” value (recombinant human AChE [1]) was “Inactive” and the “IC50 (μM), Fluorescence, +Human MS” value (recombinant human AChE [5]) was “Inactive”. The “IC50 (μM), Fluorescence, +Rat MS” value (recombinant human AChE [6]) was “Inactive” and the “IC50 (μM), Colorimetric” value (recombinant human AChE [2]) was “Inactive”.

Molecule `CCCSP(=O)(OCC)SCCC` [Ethoprop] has an Emax (recombinant human AChE [2]) of 43.4%.

In the case of `CCOP(=O)(SC(C)CC)N1CCSC1=O` (stereo not shown) [Fosthiazate], the “IC50 (μM), Fluorescence” value (recombinant human AChE [1]) is reported as “Inactive”, the “inhibitory effect on AChE activity (in words)” value (“inhibitory effect” below) (recombinant human AChE [1]) is reported as “did not show inhibition effects” and the “IC50 (μM), Colorimetric” value (recombinant human AChE [2]) is reported as “Inactive”. For the same molecule, the “inhibitory effect” value (recombinant human AChE [2]) was “did not show inhibition effects”.

`CCOC(=O)CC(SP(=O)(OC)OC)C(=O)OCC` (stereo not shown) [Malaoxon] gave an Emax (recombinant human AChE [1]) of 95.2% and an Emax (recombinant human AChE [2]) of 91.1%.

With `CCOC(=O)CC(SP(=S)(OC)OC)C(=O)OCC` (stereo not shown) [Malathion] the Emax (recombinant human AChE [3]) was 59.4%, the “IC50 (μM), Colorimetric, +Human MS” value (recombinant human AChE [4]) was “Inactive” and the Emax (recombinant human AChE [1]) was 77%. For the same molecule, the “IC50 (μM), Fluorescence, +Human MS” value (recombinant human AChE [5]) was “Inactive”, the “IC50 (μM), Fluorescence, +Rat MS” value (recombinant human AChE [6]) was “Inactive” and the “IC50 (μM), Colorimetric” value (recombinant human AChE [2]) was “Inactive”.

Molecule `COP(N)(=O)SC` (stereo not shown) [Methamidophos] has an Emax (recombinant human AChE [1]) of 103% and an Emax (recombinant human AChE [2]) of 38.7%.

For `COP(=O)(OC)OC(Br)C(Cl)(Cl)Br` (stereo not shown) [Naled], the “IC50 (μM), Fluorescence” value (recombinant human AChE [1]) was “Inactive”, the IC50 (recombinant human AChE [2]) was 61.3 µM and the Emax (recombinant human AChE [2]) was 46.5%.

In the case of `CNC(=O)CSP(=O)(OC)OC` [Omethoate], the IC50 (recombinant human AChE [1]) is reported as 68.9 µM, the Emax (recombinant human AChE [1]) is reported as 46.3% and the “IC50 (μM), Colorimetric” value (recombinant human AChE [2]) is reported as “Inactive”.

In the case of `CCOP(=S)(OCC)SCSCC` [Phorate], the Emax (recombinant human AChE [3]) is reported as 96.3%, the “IC50 (μM), Colorimetric, +Human MS” value (recombinant human AChE [4]) is reported as “Inactive” and the “inhibitory effect” value (recombinant human AChE [4]) is reported as “did not show inhibitory effects”. The Emax (recombinant human AChE [1]) was 44.4%, the “IC50 (μM), Fluorescence, +Human MS” value (recombinant human AChE [5]) was “Inactive” and the Emax (recombinant human AChE [6]) was 72%. The “IC50 (μM), Colorimetric” value (recombinant human AChE [2]) was “Inactive”.

In the case of `COP(=S)(OC)SCN1C(=O)c2ccccc2C1=O` [Phosmet], the “IC50 (μM), Colorimetric, +Rat MS” value (recombinant human AChE [3]) is reported as “Inactive”, the “IC50 (μM), Colorimetric, +Human MS” value (recombinant human AChE [4]) is reported as “Inactive” and the Emax (recombinant human AChE [1]) is reported as 65.3%. The “IC50 (μM), Fluorescence, +Human MS” value (recombinant human AChE [5]) was “Inactive”, the Emax (recombinant human AChE [6]) was 43.5% and the “IC50 (μM), Colorimetric” value (recombinant human AChE [2]) was “Inactive”.

For `CCN(CC)c1nc(C)cc(OP(=S)(OC)OC)n1` [Pirimiphos-methyl], the “IC50 (μM), Colorimetric, +Rat MS” value (recombinant human AChE [3]) was “Inactive”, the “IC50 (μM), Colorimetric, +Human MS” value (recombinant human AChE [4]) was “Inactive” and the “IC50 (μM), Fluorescence” value (recombinant human AChE [1]) was “Inactive”. For the same molecule, the “IC50 (μM), Fluorescence, +Human MS” value (recombinant human AChE [5]) was “Inactive”, the IC50 (recombinant human AChE [6]) was 41.7 µM and the Emax (recombinant human AChE [6]) was 42%. For the same molecule, the “IC50 (μM), Colorimetric” value (recombinant human AChE [2]) was “Inactive”.

With `CCCSP(=O)(OCC)Oc1ccc(Br)cc1Cl` (stereo not shown) [Profenofos] the Emax (recombinant human AChE [1]) was 93.7% and the Emax (recombinant human AChE [2]) was 83.2%.

In the case of `CCOP(=S)(Oc1cnc(C(C)(C)C)nc1)OC(C)C` (stereo not shown) [Tebupirimfos], the Emax (recombinant human AChE [3]) is reported as 100%, the “efficacy (%), Colorimetric, +Human MS” value (recombinant human AChE [4]) is reported as 14.39±2.31 (−95.21±2.02) % and the IC50 (recombinant human AChE [4]; [7]) is reported as 14.4 µM. The Emax (recombinant human AChE [1]) was 90.4%, the “efficacy (%), Fluorescence, +Human MS” value (recombinant human AChE [5]) was 48.81±5.61 (−70.67±3.28) % and the Emax (recombinant human AChE [6]) was 91%. For the same molecule, the Emax (recombinant human AChE [2]) was 53%.

For `CCOP(=S)(OCC)SCSC(C)(C)C` [Terbufos], the Emax (recombinant human AChE [3]) was 95.7%, the “efficacy (%), Colorimetric, +Human MS” value (recombinant human AChE [4]) was 31.74±5.73 (−57.67±2.16) % and the IC50 (recombinant human AChE [4]; [7]) was 31.7 µM. The “IC50 (μM), Fluorescence” value (recombinant human AChE [1]) was “Inactive”, the “IC50 (μM), Fluorescence, +Human MS” value (recombinant human AChE [5]) was “Inactive” and the Emax (recombinant human AChE [6]) was 85.3%. The “IC50 (μM), Colorimetric” value (recombinant human AChE [2]) was “Inactive”.

For `CCCCSP(=O)(SCCCC)SCCCC` [Tribufos], the Emax (recombinant human AChE [1]) was 60.8% and the “IC50 (μM), Colorimetric” value (recombinant human AChE [2]) was “Inactive”.

Work on `COP(=O)(OC)C(O)C(Cl)(Cl)Cl` (stereo not shown) [Trichlorfon] yielded an Emax (recombinant human AChE [1]) of 91.5% and an Emax (recombinant human AChE [2]) of 30%.

For `COP(=O)(OC)O/C(=C\Cl)c1cc(Cl)c(Cl)cc1Cl` [Z-Tetrachlorvinphos], the Emax (recombinant human AChE [1]) was 75.7% and the “IC50 (μM), Colorimetric” value (recombinant human AChE [2]) was “Inactive”.
